In US20020076402A1, “Enzyme-based fungicidal composition” (Universite Pierre et Marie Curie, priority 1998, published 2002):

Tests used:
[1] = system: Fusarium nivale and Fusarium roseum; experiment: Pelliculisation of corn: degree of contamination by Fusarium sp.; format: in vivo
Experimental: (§1) Germination inhibition test: The pelliculised grains were placed in Petri dishes containing the growth medium. On the fifth day, the degree of contamination (number of contaminated grains/total number of grains) and degree of germination (number of germinated grains/total number of grains) were determined and compared with those of batches pelliculised with Sepiret 01G alone.
(§2) Formulation: An aqueous suspension of Sepiret 7017 Argent composed of 7 g of commercial slip and 10 ml of water was used. 100 mg of the substances shown below was mixed with 2 ml of the above suspension and this mixture was used to pelliculise batches of 2 g of corn. This latter originated from a culture naturally contaminated with Fusarium nivale and Fusarium roseum: […]
(§3) Mixtures tested: (quantities used to pelliculise 2 g of corn: […]

corn = experiment: Pelliculisation of corn: degree of germination; format: in vivo
Experimental: When the test is applied to pelliculised grains or seeds, the degree of germination is determined by the number of grains germinated over the total number of grains, and compared with those of non pelliculised batches, or grains that are pelliculised grains in the absence of enzymes and/or their substrate.
Chitinases alone: quantity used to pelliculise 3 to 4 g of corn naturally contaminated with the phytopathogenic fungi Fusarium nivale and Fusarium roseum: 100 mg of CNase was mixed with 3.4 ml of a suspension of Sepiret 7017 Argent composed of 3.6 g of the commercial suspension and 10 ml of water.
Laminarinases alone: quantity used to pelliculise 2 g of contaminated corn: 40 mg of freeze-dried LMase with a filter of 17 units/mg were mixed with 2 ml of a suspension of Sepiret 7017 Argent composed of 3 g of the commercial suspension and 5 ml of water.
Lysozyme alone: quantity used to pelliculise 2 g of contaminated corn: 100 mg of LZ was mixed with 2 ml of a suspension of Sepiret 7017 Argent composed of 5 g of the commercial suspension and 7.1 ml of water.
as §1, §2, §3

[2] = Example 4, 100 mg substance in 2 ml Sepiret 7017 Argent suspension per 2 g corn, day five
[3] = Example 3 mono-enzymatic mixtures in Sepiret 7017 Argent, fifth day

Compound | Contamination [1, 2] | effect on degree of contamination (in words) ([1]; Example 4, vs reference) | Germination (corn; [2]) | inhibition of Fusarium sp. fungi (in words) ([1]; Example 3, enzyme alone) | Degree of contamination [1, 3] | relative variation of degree of germination (corn; Example 3, vs own control) | Degree of germination (corn; [3])
CC(=O)N[C@H]1C(O)O[C@H](CO)[C@@H](O)[C@@H]1O (stereo partly shown) [NAG, N-acetylglucosamine, reference compound] | 70% | no effect | 65% |  |  |  | 
lysozyme hydrochloride [LZ] |  |  |  | no effect | 65% | +20% | 85%
